Molecular target: T1, IRAK4 (Homo sapiens, UniProt Q9NWZ3)
T1 construct: C-terminal HiBiT-tagged Jurkat cells (polyclonal cell line or clone 8D5); endogenous in cells; host or cells: Jurkat cells (polyclonal cell line or clone 8D5), HiBiT-tagged
T1 sequence (Q9NWZ3 1-460): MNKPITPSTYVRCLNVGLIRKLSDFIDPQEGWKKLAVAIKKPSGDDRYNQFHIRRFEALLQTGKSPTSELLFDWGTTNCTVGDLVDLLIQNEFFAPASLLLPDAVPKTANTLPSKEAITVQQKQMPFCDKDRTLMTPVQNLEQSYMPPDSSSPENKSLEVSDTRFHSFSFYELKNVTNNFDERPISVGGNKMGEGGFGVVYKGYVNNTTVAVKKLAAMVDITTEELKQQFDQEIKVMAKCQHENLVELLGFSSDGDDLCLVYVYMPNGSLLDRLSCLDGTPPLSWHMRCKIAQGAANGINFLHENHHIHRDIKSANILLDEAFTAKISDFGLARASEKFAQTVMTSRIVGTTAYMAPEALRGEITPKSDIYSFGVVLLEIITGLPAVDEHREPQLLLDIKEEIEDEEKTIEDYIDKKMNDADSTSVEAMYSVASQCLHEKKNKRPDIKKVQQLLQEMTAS
Assay: IRAK4 Degradation HiBit Assay
Assay type: cell-based
Settings: C-terminal HiBiT-tagged Jurkat cells, 4 hrs incubation; for DC50: % IRAK4 remaining, four-parameter fit (IC50 used as DC50); for Dmax: from fit of % IRAK4 remaining, read-out: Dmax
Summary of the method: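 Degradation was quantified by luminescence after adding lytic detection reagent containing LgBiT to HiBiT-tagged Jurkat cells (polyclonal or clone 8D5). Cells were treated 4 h at 32 °C across 11 concentrations from 10 μM to 0.1 nM final. Four-parameter curve fitting of % IRAK4 remaining versus DMSO gave DC50 and Dmax.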

| DC50 [nM] | Dmax [%] | Compound |
| --- | --- | --- |
| 22 | 112 | N#Cc1cnn2c(-c3cc(N[C@H]4CCOC4)c(-c4nnc(N5CCN(CC6CCN(c7ccc([C@@H]8CCC(=O)NC8=O)cn7)CC6)CC5)s4)cn3)ccc2c1 (single isomer, unassigned) [Example 130] |
| 13 | 111 | N#CCNc1cc(-c2ccc3cc(C#N)cnn23)ncc1-c1nnc(N2CCN(CC3CCN(c4ccc([C@@H]5CCC(=O)NC5=O)cn4)CC3)CC2)s1 (single isomer, unassigned) [Example 132] |
| 104 | 88 | N#Cc1cnn2c(-c3cc(N[C@@H]4CCOC4)c(-c4nnc(N5CCN(CC6CCN(c7ccc([C@H]8CCC(=O)NC8=O)cn7)CC6)CC5)s4)cn3)ccc2c1 (single isomer, unassigned) [Example 137] |
| 166 | 87 | N#Cc1cnn2c(-c3cc(N[C@H]4CCOC4)c(-c4nnc(N5CCN(CC6CCN(c7ccc([C@H]8CCC(=O)NC8=O)cn7)CC6)CC5)s4)cn3)ccc2c1 (single isomer, unassigned) [Example 144] |
| 29 | 110 | N#Cc1cnn2c(-c3cc(NC4CCOCC4)c(-c4nnc(N5CCN(CC6CCN(c7ccc(N8CCC(=O)NC8=O)c(F)c7)CC6)CC5)s4)cn3)ccc2c1 [Example 8, 7-(5-{5-[4-({1-[4-(2,4-dioxo-1,3-diazinan-1-yl)-3-fluorophenyl]piperidin-4-yl}methyl)piperazin-1-yl]-1,3,4-thiadiazol-2-yl}-4-[(oxan-4-yl)amino]pyridin-2-yl)pyrrolo[1,2-b]pyridazine-3-carbonitrile] |
| 15 | 107 | N#Cc1cnn2c(-c3cc(NC4CCOCC4)c(-c4nnc(N5CCN(CC6CCN(c7ccc(N8CCC(=O)NC8=O)cn7)CC6)CC5)s4)cn3)ccc2c1 [Example 28, 7-(5-{5-[4-({1-[5-(2,4-dioxo-1,3-diazinan-1-yl)pyridin-2-yl]piperidin-4-yl}methyl)piperazin-1-yl]-1,3,4-thiadiazol-2-yl}-4-[(oxan-4-yl)amino]pyridin-2-yl)pyrrolo[1,2-b]pyridazine-3-carbonitrile] |
| 16 | 86 | N#Cc1cnn2c(-c3cc(NC4CCOCC4)c(-c4nnc(N5CCN(CC6CCN(c7ccc(N8CCC(=O)NC8=O)cc7)CC6)CC5)s4)cn3)ccc2c1 [Example 60, 7-(5-{5-[4-({1-[4-(2,4-dioxo-1,3-diazinan-1-yl)phenyl]piperidin-4-yl}methyl)piperazin-1-yl]-1,3,4-thiadiazol-2-yl}-4-[(oxan-4-yl)amino]pyridin-2-yl)pyrrolo[1,2-b]pyridazine-3-carbonitrile] |
| 12 | 41 | N#Cc1cnn2c(-c3cc(NC4CCOCC4)c(-c4nnc(N5CCN(CC6CCN(C(=O)c7ccc(F)c(N8CCC(=O)NC8=O)c7)CC6)CC5)s4)cn3)ccc2c1 [Example 62, 7-(5-{5-[4-({1-[3-(2,4-dioxo-1,3-diazinan-1-yl)-4-fluorobenzoyl]piperidin-4-yl}methyl)piperazin-1-yl]-1,3,4-thiadiazol-2-yl}-4-[(oxan-4-yl)amino]pyridin-2-yl)pyrrolo[1,2-b]pyridazine-3-carbonitrile] |
| 29 | 95 | N#Cc1cnn2c(-c3cc(NC4CCOCC4)c(-c4nnc(C56CCC(C(=O)N7CCc8cc(N9CCC(=O)NC9=O)ccc8C7)(CC5)CC6)s4)cn3)ccc2c1 [Example 63, 7-[5-(5-{4-[6-(2,4-dioxo-1,3-diazinan-1-yl)-1,2,3,4-tetrahydroisoquinoline-2-carbonyl]bicyclo[2.2.2]octan-1-yl}-1,3,4-thiadiazol-2-yl)-4-[(oxan-4-yl)amino]pyridin-2-yl]pyrrolo[1,2-b]pyridazine-3-carbonitrile] |
| 43 | 110 | CC(C)Nc1cc(-c2ccc3cc(C#N)cnn23)ncc1-c1nnc(N2CCN(CC3CCN(c4ccc(N5CCC(=O)NC5=O)cn4)CC3)CC2)s1 [Example 65, 7-(5-{5-[4-({1-[5-(2,4-dioxo-1,3-diazinan-1-yl)pyridin-2-yl]piperidin-4-yl}methyl)piperazin-1-yl]-1,3,4-thiadiazol-2-yl}-4-[(propan-2-yl)amino]pyridin-2-yl)pyrrolo[1,2-b]pyridazine-3-carbonitrile] |
| 6 | 110 | CCNc1cc(-c2ccc3cc(C#N)cnn23)ncc1-c1nnc(N2CCN(CC3CCN(c4ccc(N5CCC(=O)NC5=O)cn4)CC3)CC2)s1 [Example 71, 7-(5-{5-[4-({1-[5-(2,4-dioxo-1,3-diazinan-1-yl)pyridin-2-yl]piperidin-4-yl}methyl)piperazin-1-yl]-1,3,4-thiadiazol-2-yl}-4-(ethylamino)pyridin-2-yl)pyrrolo[1,2-b]pyridazine-3-carbonitrile] |
| 19 | 111 | N#Cc1cnn2c(-c3cc(NC4CC4)c(-c4nnc(N5CCN(CC6CCN(c7ccc(N8CCC(=O)NC8=O)cn7)CC6)CC5)s4)cn3)ccc2c1 [Example 78, 7-[4-(cyclopropylamino)-5-{5-[4-({1-[5-(2,4-dioxo-1,3-diazinan-1-yl)pyridin-2-yl]piperidin-4-yl}methyl)piperazin-1-yl]-1,3,4-thiadiazol-2-yl}pyridin-2-yl]pyrrolo[1,2-b]pyridazine-3-carbonitrile] |
| 84 | 90 | CC1(Nc2cc(-c3ccc4cc(C#N)cnn34)ncc2-c2nnc(N3CCN(CC4CCN(c5ccc(N6CCC(=O)NC6=O)cn5)CC4)CC3)s2)COC1 [Example 80, 7-(5-{5-[4-({1-[5-(2,4-dioxo-1,3-diazinan-1-yl)pyridin-2-yl]piperidin-4-yl}methyl)piperazin-1-yl]-1,3,4-thiadiazol-2-yl}-4-[(3-methyloxetan-3-yl)amino]pyridin-2-yl)pyrrolo[1,2-b]pyridazine-3-carbonitrile] |
| 52 | 80 | N#Cc1cnn2c(-c3cc(NC4CC4)c(-c4nnc(N5CCN(CC6CCN(c7ccc(N8CCC(=O)NC8=O)cc7)CC6)CC5)s4)cn3)ccc2c1 [Example 83, 7-[4-(cyclopropylamino)-5-{5-[4-({1-[4-(2,4-dioxo-1,3-diazinan-1-yl)phenyl]piperidin-4-yl}methyl)piperazin-1-yl]-1,3,4-thiadiazol-2-yl}pyridin-2-yl]pyrrolo[1,2-b]pyridazine-3-carbonitrile] |

| Compound | DC50 [nM] | Dmax [%] |
| --- | --- | --- |
| N#Cc1cnn2c(-c3cc(N[C@@H]4CCOC4)c(-c4nnc(N5CC6CCC(C5)N6CC5CCN(c6ccc([C@@H]7CCC(=O)NC7=O)cc6)CC5)s4)cn3)ccc2c1 (single isomer, unassigned) [Example 131] | 21 | 110 |
| N#CCNc1cc(-c2ccc3cc(C#N)cnn23)ncc1-c1nnc(N2CC3CCC(C2)N3CC2CCN(c3ccc([C@@H]4CCC(=O)NC4=O)cn3)CC2)s1 (single isomer, unassigned) [Example 133] | 13 | 110 |
| N#Cc1cnn2c(-c3cc(NC4(C#N)CC4)c(-c4nnc(N5CC6CCC(C5)N6CC5CCN(c6ccc([C@@H]7CCC(=O)NC7=O)cn6)CC5)s4)cn3)ccc2c1 (single isomer, unassigned) [Example 134] | 20 | 111 |
| C[C@H](C#N)Nc1cc(-c2ccc3cc(C#N)cnn23)ncc1-c1nnc(N2CC3CCC(C2)N3CC2CCN(c3ccc([C@@H]4CCC(=O)NC4=O)cn3)CC2)s1 (single isomer, unassigned) [Example 135] | 5 | 108 |
| N#Cc1cnn2c(-c3cc(Nc4cnoc4)c(-c4nnc(N5CC6CCC(C5)N6CC5CCN(c6ccc([C@@H]7CCC(=O)NC7=O)cn6)CC5)s4)cn3)ccc2c1 (single isomer, unassigned) [Example 136] | 25 | 113 |
| C[C@H](C#N)Nc1cc(-c2ccc3cc(C#N)cnn23)ncc1-c1nnc(N2CC3CCC(C2)N3CC2CCN(c3ccc([C@H]4CCC(=O)NC4=O)cn3)CC2)s1 (single isomer, unassigned) [Example 142] | 12 | 96 |
| C[C@@H](C#N)Nc1cc(-c2ccc3cc(C#N)cnn23)ncc1-c1nnc(N2CC3CCC(C2)N3CC2CCN(c3ccc([C@H]4CCC(=O)NC4=O)cn3)CC2)s1 (single isomer, unassigned) [Example 143] | 72 | 99 |
| C[C@@H](C#N)Nc1cc(-c2ccc3cc(C#N)cnn23)ncc1-c1nnc(N2CC3CCC(C2)N3CC2CCN(c3ccc([C@@H]4CCC(=O)NC4=O)cn3)CC2)s1 (single isomer, unassigned) [Example 145] | 22 | 113 |
| CC(C)Nc1cc(-c2ccc3cc(C#N)cnn23)ncc1-c1nnc(N2CC3CCC(C2)N3CC2CCN(c3ccc(N4CCC(=O)NC4=O)cn3)CC2)s1 [Example 73, 7-(5-{5-[8-({1-[5-(2,4-dioxo-1,3-diazinan-1-yl)pyridin-2-yl]piperidin-4-yl}methyl)-3,8-diazabicyclo[3.2.1]octan-3-yl]-1,3,4-thiadiazol-2-yl}-4-[(propan-2-yl)amino]pyridin-2-yl)pyrrolo[1,2-b]pyridazine-3-carbonitrile] | 29 | 105 |

Source: patent US12570662B2, “Substituted pyrrolo[1,2-b]pyridazines as bifunctional degraders of interleukin-1 receptor-associated kinases” (Nurix Therapeutics, Inc., priority 2021, dated 2026)
